Results on 55 compounds are retold here after PubChem BioAssay AID1159588 (Gregory J. Crowther, 2016).

By IC50 is commonly meant the concentration that inhibits the measured activity by half.

The target of this assay is Calcium-dependent protein kinase 4 (Plasmodium falciparum (isolate 3D7)) (UniProt Q8IBS5). The experiment in a line: PfCDPK4 kinase inhibitors, biochemical, TCAMS library (AID 1159588). As to conditions: recombinant PfCDPK4, Kinase-Glo ATP depletion luminescence. (In general: Kinase-Glo reads ATP consumption through a luciferase reaction.)
Calcium-dependent protein kinase 4 (Plasmodium falciparum (isolate 3D7)), sequence (Q8IBS5 whole entry, looked up): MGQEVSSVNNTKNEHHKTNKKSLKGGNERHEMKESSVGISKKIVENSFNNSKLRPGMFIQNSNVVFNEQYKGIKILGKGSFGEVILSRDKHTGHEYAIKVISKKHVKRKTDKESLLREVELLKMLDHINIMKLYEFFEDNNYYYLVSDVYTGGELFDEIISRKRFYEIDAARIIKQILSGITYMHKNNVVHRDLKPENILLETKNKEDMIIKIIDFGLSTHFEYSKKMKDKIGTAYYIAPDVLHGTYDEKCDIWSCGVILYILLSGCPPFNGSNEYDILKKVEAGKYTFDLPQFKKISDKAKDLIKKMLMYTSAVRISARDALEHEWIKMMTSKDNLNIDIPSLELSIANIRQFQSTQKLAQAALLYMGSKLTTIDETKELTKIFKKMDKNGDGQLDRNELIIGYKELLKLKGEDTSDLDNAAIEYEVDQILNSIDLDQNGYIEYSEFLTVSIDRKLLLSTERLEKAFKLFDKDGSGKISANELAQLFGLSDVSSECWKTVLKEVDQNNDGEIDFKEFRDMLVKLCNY

With `CCn1c(-c2nonc2N)nc2c(-c3cccc(NC(=O)Nc4ccc(C#N)cc4)c3)ncc(OCCCN)c21`, the IC50 is 84 nM.

With `CCn1c(-c2nonc2N)nc2c(-c3cccc(NC(=O)Nc4ccccc4OC)c3)ncc(OCCCN)c21`, the half-maximal inhibitory concentration (IC50) was 706 nM.

Take `CCN(CC)CCNC(=O)c1ccc(N=Cc2c(O)[nH]c3ccc(S(=O)(=O)Cc4c(Cl)cccc4Cl)cc23)cc1`: the IC50 is 73 nM.

Take `O=C(NCC(c1ccc(C(F)(F)F)cc1)N1CCCC1)c1cc(-c2ccncc2)c(-c2cccc(O)c2)o1` (stereo not given): the IC50 was 178 nM.

`CCn1c(-c2nonc2N)nc2c(-c3cc4ccccc4s3)ncc(C(=O)N3CCC(N)C3)c21` (stereo not given): the IC50 was 89 nM.

Take `CN1CCN(c2ccc(Nc3ncc(C#N)c(Nc4ccccc4C(N)=O)n3)cc2)CC1`: the IC50 is 188 nM.

For `Cc1cc(Nc2ncc(C#N)c(Nc3ccccc3C(N)=O)n2)ccc1N1CCN(C)CC1`, the concentration for half-maximal inhibition (IC50) is 89 nM.

With `COc1cc(Nc2nccc(-c3c(-c4cccc(NC(=O)c5c(F)cccc5F)c4)nn4ncccc34)n2)cc(OC)c1OC`, the 50% inhibitory concentration (IC50) was 45 nM.

For `CCn1c(-c2nonc2N)nc2c(-c3cccc(NC(=O)Nc4cccc(Cl)c4)c3)ncc(OCCCN)c21`, the IC50 was 81 nM.

Consider `O=C(Nc1cccc(-c2nn3ccccc3c2-c2ccnc(Nc3ccc(-c4ccn[nH]4)cc3)n2)c1)c1c(F)cccc1F`, for which the IC50 is 307 nM.

With `NC[C@H](CC1CCCCC1)NC(=O)c1ccc(-c2ccnc3[nH]ccc23)s1`, the IC50 was 527 nM.

Consider `NCC(NC(=O)c1ccc(-c2c[nH]c3ncccc23)s1)c1ccccc1` (stereo not given), for which the IC50 was 473 nM.

Consider `CN1CCN(c2ccc(Nc3nccc(-c4c(-c5cccc(NC(=O)c6c(F)cccc6F)c5)nn5ccccc45)n3)cc2)CC1`, for which the IC50 is 75 nM.

Turning to `O=C(Nc1cccc(-c2nn3ncccc3c2-c2ccnc(Nc3cccc(-c4cnco4)c3)n2)c1)c1c(F)cccc1F`, the IC50 is 145 nM.

`CCN(CC)CCCOc1ccc(Nc2nccc(-c3c(-c4cccc(NC(=O)c5c(F)cccc5F)c4)nn4ccccc34)n2)cc1F`: the IC50 is 86 nM.

Turning to `NS(=O)(=O)c1cccc(Nc2nccc(-c3c(-c4cccc(NC(=O)c5c(F)cccc5F)c4)nn4ccccc34)n2)c1`, the IC50 is 51 nM.

With `CCn1c(-c2nonc2N)nc2c(-c3cccc(NC(=O)Nc4cccc(C#N)c4)c3)ncc(OCCCN)c21`, the IC50 is 170 nM.

`Cc1csc(-c2ncc(OC[C@@H](N)Cc3ccccc3)cc2-c2ccc3n[nH]c(C)c3c2)c1`: the concentration for half-maximal inhibition (IC50) was 420 nM.

`CCn1c(-c2nonc2N)nc2c(-c3cccc(NC(=O)Nc4ccc5c(c4)CCC5)c3)ncc(OCCCN)c21`: the IC50 was 59 nM.

On to `CCn1c(-c2nonc2N)nc2c(-c3ccccc3)ncc(OCCCCNCCc3ncc[nH]3)c21`, for which the IC50 was 43 nM.

Regarding `CCn1c(-c2nonc2N)nc2c(-c3cccc(NC(=O)Nc4ccc(C(F)(F)F)cc4)c3)ncc(OCCCN)c21`, the IC50 was 30 nM.

With `CCn1c(-c2nonc2N)nc2c(-c3cccc(Cl)c3)ncc(OCCCNCCc3cnc[nH]3)c21`, the IC50 was 46 nM.

As to `Cc1[nH]c(/C=C2\C(=O)Nc3ccc(S(=O)(=O)Cc4c(Cl)cccc4Cl)cc32)c(C)c1C(=O)N1CCC[C@@H]1CN1CCCC1`, the IC50 was 21 nM.

Regarding `COCCOc1ccc(Nc2nccc(-c3c(-c4cccc(NC(=O)c5c(F)cccc5F)c4)nn4ccccc34)n2)cc1Cl`, the concentration for half-maximal inhibition (IC50) was 853 nM.

`CCn1c(-c2nonc2N)nc2c(-c3ccccc3)ncc(OCCCNCCCN3CCOCC3)c21`: the IC50 was 38 nM.

For the compound `Cc1cccc(Nc2nc(NCCCCN)nc3cc[nH]c(=O)c23)c1`, the IC50 was 166 nM.

Turning to `O=c1[nH]ccc2nc(N[C@@H]3CCNC3)nc(Nc3cc(Cl)cc(Cl)c3)c12`, the IC50 is 446 nM.

Turning to `Cn1cccc1C(=O)Nc1cccc(-c2nn3ccccc3c2-c2ccnc(Nc3ccc4c(c3)OCCO4)n2)c1`, the IC50 is 191 nM.

As to `O=C(Nc1ccccc1)Nc1cccc(-c2nn3c(OCCN4CCCC4)cccc3c2-c2ccncc2)c1`, the IC50 was 775 nM.

As for `CCn1c(-c2nonc2N)nc2c(-c3cccc(Cl)c3)ncc(OCCCNCc3cnc(C)nc3N)c21`, the IC50 is 145 nM.

Regarding `CNC(=O)c1ccccc1Nc1nc(Nc2ccc(CCN3CCN(C)CC3)cc2)ncc1Cl`, the IC50 was 361 nM.

Regarding `CS(=O)(=O)Cc1ccc(Nc2nccc(-c3c(-c4cccc(NC(=O)c5c(F)cccc5F)c4)nn4ccccc34)n2)cc1`, the IC50 is 52 nM.

Take `NS(=O)(=O)CCc1cccc(Nc2nccc(-c3c(-c4cccc(NC(=O)c5c(F)cccc5F)c4)nn4ccccc34)n2)c1`: the IC50 was 29 nM.

Regarding `N#Cc1ccc(C(=O)Nc2cc(-c3cccc(O)c3)cc3[nH]ncc23)cc1`, the IC50 was 478 nM.

Consider `CS(=O)(=O)Cc1ccc(Nc2nccc(-c3c(-c4cccc(C(=O)Nc5c(F)cccc5F)c4)nn4ccccc34)n2)cc1`, for which the IC50 is 65 nM.

`Cc1[nH]nc2ccc(-c3cc(OC[C@@H](N)Cc4ccccc4)cnc3-c3cc4ccccc4s3)cc12`: the IC50 was 563 nM.

For the compound `CCn1c(-c2nonc2N)nc2c(-c3cccc(NC(=O)Nc4ccccc4Cl)c3)ncc(OCCCN)c21`, the IC50 was 138 nM.

Take `O=C(Nc1cccc(-c2nn3ccccc3c2-c2ccnc(Nc3ccc(C(=O)N4CCOCC4)cc3)n2)c1)c1c(F)cccc1F`: the IC50 was 311 nM.

Regarding `O=C(Nc1cccc(-c2nn3ncccc3c2-c2ccnc(Nc3ccccc3)n2)c1)c1c(F)cccc1F`, the half-maximal inhibitory concentration (IC50) was 352 nM.

Consider `CCn1c(-c2nonc2N)nc2c(-c3cccc(NC(=O)NC45CC6CC(CC(C6)C4)C5)c3)ncc(OCCCN)c21`, for which the IC50 was 158 nM.

Regarding `CCn1c(-c2nonc2N)nc2c(-c3cccc(NC(=O)Nc4cccc(C(F)(F)F)c4)c3)ncc(OCCCN)c21`, the IC50 was 342 nM.

In the case of `CCS(=O)(=O)c1ccc(OC)c(Nc2nccc(-c3c(-c4cccc(NC(=O)c5c(F)cccc5F)c4)nn4ncccc34)n2)c1`, the IC50 was 201 nM.

On to `CC(=O)Nc1cccc(Nc2nccc(-c3c(-c4cccc(NC(=O)c5c(F)cccc5F)c4)nn4ncccc34)n2)c1`, for which the IC50 is 26 nM.

`O=C(Nc1c(F)cccc1F)c1cccc(-c2nn3ccccc3c2-c2ccnc(Nc3cccc(-c4cnco4)c3)n2)c1`: the IC50 is 134 nM.

Take `COc1cc(Nc2nccc(-c3c(-c4cccc(NC(=O)c5c(F)cccc5F)c4)nn4ccccc34)n2)cc(OC)c1OC`: the IC50 is 77 nM.

As for `CC(c1cccc(Nc2nccc(-c3c(-c4cccc(NC(=O)c5c(F)cccc5F)c4)nn4ncccc34)n2)c1)S(C)(=O)=O` (stereo not given), the concentration for half-maximal inhibition (IC50) is 24 nM.

Take `O=C(Nc1cccc(-c2nn3ccccc3c2-c2ccnc(Nc3cccc(-c4cnco4)c3)n2)c1)C1CCCCC1`: the IC50 was 612 nM.

For the compound `NCCCNc1nc(Nc2cccc(C(N)=O)c2)c2c(=O)[nH]ccc2n1`, the half-inhibitory concentration (IC50) was 967 nM.

In the case of `CS(=O)(=O)Cc1ccc(Nc2nccc(-c3c(-c4cccc(NC(=O)C5CCCCC5)c4)nn4ncccc34)n2)cc1`, the IC50 is 67 nM.

As for `CC(C)(CN)c1cc(-c2ccc(Cl)c(O)c2)c(-c2ccncc2)o1`, the half-inhibitory concentration (IC50) was 433 nM.

As to `CC(c1cccc(Nc2nccc(-c3c(-c4cccc(NC(=O)c5c(F)cccc5F)c4)nn4ccccc34)n2)c1)S(C)(=O)=O` (stereo not given), the IC50 was 90 nM.

With `NS(=O)(=O)c1cccc(Nc2nc(N[C@@H]3CCNC3)nc3cc[nH]c(=O)c23)c1`, the concentration for half-maximal inhibition (IC50) was 135 nM.

In the case of `Cc1cccc(Nc2nc(N[C@@H]3CCCNC3)nc3cc[nH]c(=O)c23)c1`, the IC50 is 76 nM.

On to `NS(=O)(=O)c1cccc(N=Cc2c(O)[nH]c3ccc(S(=O)(=O)Cc4c(Cl)cccc4Cl)cc23)c1`, for which the IC50 was 116 nM.

Take `O=C(Nc1cccc(-c2nn3ccccc3c2-c2ccnc(Nc3ccc(NCCCN4CCOCC4)c(F)c3)n2)c1)c1c(F)cccc1F`: the half-maximal inhibitory concentration (IC50) is 315 nM.
